Experimental data as given in US6046192A, “Phenylethanolaminotetralincarboxamide derivatives” (Kissei Pharmaceutical Co., Ltd., priority 1996, dated 2000).

How the values were obtained:
[1] = test system: β1 -adrenergic receptor; assay: Atrial contraction of isolated rat atrium (β1-adrenergic receptor stimulating activity); details: isolated rat atrium (SD male), Magnus method
Method: Thus, the compounds of the present invention have a markedly weaker β1 -adrenergic receptor stimulating effect in comparison with the aforementioned β2 -adrenergic receptor stimulating effect.
Action of Drugs on the Atrial Contraction of Isolated Rat Atrium
The atria of SD male rats (350 to 400 g in body weight) were isolated and the experiment was conducted according to the Magnus method. The preparations with a tension of 1 g were exposed to Krebs-Henseleit solution maintained at 37° C. and gassed with a mixture of 95% of oxygen and 5% of carbon dioxide. The atrial contraction was induced isometrically via a pressure transducer and recorded on a rectigram. After addition of the drug, its efficacy was evaluated as drug concentration which increases 20 beats per minute of heart rate (i.e., EC20 value).

[2] = test system: ICR mice; assay: Acute toxicity; type: in vivo; details: female ICR mice, intravenous, 50 mg/kg in saline
Method: To 4 female ICR mice of 4 weeks age was administered intravenously 2-[(2S)-2-[[(2R)-2-hydroxy-2-(4-hydroxyphenyl)-ethyl]amino]-1,2,3,4-tetrahydronaphthalen-7-yloxy]-N,N-dimethylacetamide dissolved in saline at dose of 50 mg/kg. No death of animals was observed during 24 hours after the administration.

[3] = target: T1, β2 -adrenergic receptor (Rattus norvegicus, UniProt P10608); assay: Spontaneous contractions of isolated pregnant rat myometrium (β2-adrenergic receptor stimulating activity); details: isolated pregnant rat uterus (SD, pregnancy day 21), Magnus method; read-out: EC50 value (activity to relax 50% of the spontaneous contractions of rat myometrium)
T1 construct: longitudinal uterine muscle strips (about 15 mm in length and about 5 mm in width) free from the basal plate were prepared; from tissue; host or cells: longitudinal uterine muscle strips of pregnant SD rats (pregnancy day 21)
Method: Thus, the compounds of the present invention have a markedly potent β2 -adrenergic receptor stimulating effect and therefore are remarkably useful as β2 -adrenergic receptor stimulating agents.
Action of Drugs on the Spontaneous Contractions of Isolated Pregnant Rat Myometrium
The uteri of pregnant SD rats (pregnancy day 21) were isolated and longitudinal uterine muscle strips (about 15 mm in length and about 5 mm in width) free from the basal plate were prepared. The experiment was conducted according to the Magnus method. The preparations with a tension of 1 g were exposed to Locke-Ringer solution maintained at 37° C. and gassed with a mixture of 95% of oxygen and 5% of carbon dioxide. Spontaneous contractions of myometrium were induced isometrically via a pressure transducer and recorded on a rectigram. The drug efficacy was evaluated as 50% inhibitory drug concentration (i.e., EC50 value) by comparing the total degree of uterine contraction during 5 minutes before the addition of the drug with the total degree of uterine contraction during 5 minutes after the addition of the drug.

T1 sequence (P10608 whole entry): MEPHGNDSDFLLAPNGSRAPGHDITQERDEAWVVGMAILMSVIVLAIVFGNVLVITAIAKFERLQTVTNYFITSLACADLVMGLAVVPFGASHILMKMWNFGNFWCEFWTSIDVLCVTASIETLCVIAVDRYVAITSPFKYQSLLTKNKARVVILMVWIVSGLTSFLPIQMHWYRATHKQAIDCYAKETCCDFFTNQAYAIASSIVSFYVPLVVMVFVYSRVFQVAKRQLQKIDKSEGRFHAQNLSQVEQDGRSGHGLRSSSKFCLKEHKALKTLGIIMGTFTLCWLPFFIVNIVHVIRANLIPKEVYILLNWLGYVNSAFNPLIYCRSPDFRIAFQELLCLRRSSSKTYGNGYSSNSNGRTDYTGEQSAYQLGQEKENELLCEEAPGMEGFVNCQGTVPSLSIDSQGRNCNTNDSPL

CN(C)C(=O)COc1ccc2c(c1)C[C@@H](NC[C@H](O)c1ccc(O)cc1)CC2 [2-[(2S)-2-[[(2R)-2-Hydroxy-2-(4-hydroxyphenyl)ethyl]-amino]-1,2,3,4-tetrahydronaphthalen-7-yloxy]-N,N-dimethylacetamide]
EC20 value (activity to increase rat heart rate 20 beats per minute) [1]: 1.6×10^-6 molar concentration | death of animals during 24 hours after the administration [2]: No death | EC50 [3]: 15 nM
